Molecular target: mTOR enzyme (Homo sapiens, UniProt P42345)
Experiment: mTOR Kinase Assay
Format: biochemical
Details: 5 μM ATP, 0.1 μM GSTS6K substrate
Experimental: The mTOR assay buffer contains 10 mM hepes (pH 7.4), 50 mM NaCl, 100 μg/ml BSA, 50 mM B-glycerophosphate, 10 mM MnCl2 and 0.5 mM DTT. 20 ng of mTOR enzyme is preincubated with the compound for 10 minutes. 5 μM ATP and 0.1 μM GSTS6K is added. The reaction is incubated for one hour at 30° C. Anti phospho p70S6K (about 1.7 ng/well) and anti GSTXL665 (1:1 Ratio with the substrate GSTS6K) are added after incubating. The plates are read at least 2 hours after adding the anti phospho p70S6K and the anti GSTXL665.
Dose-response curves were plotted from inhibition data generated, each in duplicate, from 8 point serial dilutions of inhibitory compounds. Concentration of compound was plotted against % kinase activity, calculated by CPM of treated samples divided by CPM of untreated samples. To generate IC50 values, the dose-response curves were then fitted to a standard sigmoidal curve and IC50 values were derived by nonlinear regression analysis.

Row | Compound | IC50 [nM]
1 | Cc1cn(C2CCN(C(=O)CO)CC2)c2nc3c(-c4ccc(-c5ccn(C)n5)nc4)cnn3c(N)c12 [Example 11] | 10 to 100
2 | Cc1cn(C2CCN(C(=O)CO)CC2)c2nc3c(-c4ccc(-c5ncc[nH]5)nc4)cnn3c(N)c12 [Example 15] | < 10
3 | Cc1cn(C2CCN(C(=O)c3nnc[nH]3)CC2)c2nc3c(-c4ccc(-c5ncc[nH]5)nc4)cnn3c(N)c12 [Example 14] | < 10
4 | Cc1cn(C2CCN(C(=O)c3nnc[nH]3)CC2)c2nc3c(-c4ccc(-c5ccccc5)nc4)cnn3c(N)c12 [Example 6] | 10 to 100
5 | Cc1cn(C2CCN(C(=O)CO)CC2)c2nc3c(-c4cnn(-c5ccccc5)c4)cnn3c(N)c12 [Example 13] | < 10
6 | Cc1cn(C2CCN(C(=O)c3nnc[nH]3)CC2)c2nc3c(-c4cnn(-c5ccccc5)c4)cnn3c(N)c12 [Example 12] | 10 to 100
7 | Cc1cn(C2CCN(C(=O)c3nnc(N)[nH]3)CC2)c2nc3c(-c4ccc(-c5ccccc5)nc4)cnn3c(N)c12 [Example 7] | 10 to 100
8 | Cc1cn(C2CCN(C(=O)CO)CC2)c2nc3c(-c4cnc5ccc(F)cc5c4)cnn3c(N)c12 [Example 4, 1-(4-(8-amino-3-(6-fluoroquinolin-3-yl)-7-methyl-5H-pyrazolo[1,5-a]pyrrolo[2,3-d]pyrimidin-5-yl)piperidin-1-yl)-2-hydroxyethanone] | < 10
9 | Cc1cn(C2CCN(C(=O)c3nnc[nH]3)CC2)c2nc3c(-c4cnc5ccc(F)cc5c4)cnn3c(N)c12 [Example 5] | < 10
10 | Cc1cn(C2CCN(C(=O)CO)CC2)c2nc3c(-c4ccc(-c5ccccc5)nc4)cnn3c(N)c12 [Example 9] | < 10
11 | Nc1c2c(nc3c(-c4ccc(-c5ccccc5)nc4)cnn13)C(NC1CCOCC1)CC2 (stereo not drawn) [Example 3, 3-(6-phenylpyridin-3-yl)-N5-(tetrahydro-2H-pyran-4-yl)-6,7-dihydro-5H-cyclopenta[d]pyrazolo[1,5-a]pyrimidine-5,8-diamine] | > 100
12 | C[C@@H](O)C(=O)N1Cc2nc3c(-c4ccc(-c5ccccc5)nc4)cnn3c(N)c2C1 [Example 1, (R)-1-(8-amino-3-(6-phenylpyridin-3-yl)-5H-pyrazolo[1,5-a]pyrrolo[3,4-d]pyrimidin-6(7H)-yl)-2-hydroxypropan-1-one] | 10 to 100
13 | Cc1cn(C2CCN(C(=O)c3nnc[nH]3)CC2)c2nc3c(-c4ccc(-c5ccn(C)n5)nc4)cnn3c(N)c12 [Example 10] | < 10
14 | Cc1cn(C2CCN(C(=O)c3cc(N)n[nH]3)CC2)c2nc3c(-c4ccc(-c5ccccc5)nc4)cnn3c(N)c12 [Example 8] | 10 to 100
15 | Nc1c2c(nc3c(-c4ccc(-c5ccccc5)nc4)cnn13)CS(=O)(=O)C2 [Example 2, 3-(6-phenylpyridin-3-yl)-5,7-dihydropyrazolo[1,5-a]6,6-dioxidothieno[3,4-d]pyrimidin-8-amine] | 10 to 100

From patent publication US8927562B2, “Fused tricyclic inhibitors of mammalian target of rapamycin” (Merck Sharp & Dohme Corp., priority 2010, dated 2015)
